From patent publication US9062066B2, “Anti-inflammatory compound having inhibitory activity against multiple tyrosine kinases and pharmaceutical composition containing same” (KOREA INSTITUTE OF SCIENCE AND TECHNOLOGY, priority 2010, dated 2015)
Like-named read-outs stand apart in the source and are kept apart here.

Tests used:
DDR2 tyrosine kinase = DDR2 tyrosine kinase (Homo sapiens (Human), UniProt Q16832); experiment: in vitro DDR2 tyrosine kinase inhibition (GST-fused kinase domain); format: biochemical; details: read-out: % inhibition against DDR2
[1] = tested on: α-smooth muscle actin protein expression in skin fibroblast cells; experiment: inhibition of α-smooth muscle actin expression in fibroblast activated by type I collagen and TGF-β1 (western blotting); format: cell-based, Balb/C mouse; details: Mus musculus, read-out: Inhibition (%) of α-smooth muscle actin increase
Text: When fibroblast, […] alpha smooth muscle cells are converted to myofibroblast by activation, one of characteristic features is that α-smooth muscle actin protein expression is increased. Also myoblast cells with the increased α-smooth muscle actin expression have a character of an increased migration. These phenomena appear together with the activation of inflammatory cells and the activated myoblast-type cells are known to contribute directly to the pathology of inflammatory diseases. […] In this experiment, the expression level of alpha smooth muscle actin can be quantificated by measuring the density of α-smooth muscle actin protein band with densitometer after developing the X-ray film of chemiluminescence signal in western blotting experiment.

[2] = tested on: TNF-α synthesis in J744A.1 macrophages; experiment: inhibition of TNF-α synthesis in LPS-activated macrophages (ELISA); format: cell-based; details: Macrophage, read-out: Inhibition (%) of TNF-α synthesis
Fgr tyrosine kinase = Fgr tyrosine kinase (Homo sapiens (Human), UniProt P09769); experiment: in vitro Fgr tyrosine kinase inhibition; format: biochemical; details: read-out: % inhibition against Fgr
[3] = tested on: NO synthesis in J744A.1 macrophage; experiment: inhibition of nitric oxide (NO) synthesis in LPS-activated macrophages (Griess reagent); format: cell-based; details: read-out: Inhibition (%) of NO synthesis
Lyn tyrosine kinase = Lyn tyrosine kinase (Homo sapiens (Human), UniProt P07948); experiment: in vitro Lyn tyrosine kinase inhibition; format: biochemical; details: read-out: % inhibition against Lyn
DDR1 tyrosine kinase = DDR1 tyrosine kinase (Homo sapiens (Human), UniProt Q08345); experiment: in vitro DDR1 tyrosine kinase inhibition (GST-fused kinase domain); format: biochemical; details: read-out: % inhibition against DDR1
Hck tyrosine kinase = Hck tyrosine kinase (Homo sapiens (Human), UniProt P08631); experiment: in vitro Hck tyrosine kinase inhibition; format: biochemical; details: read-out: % inhibition against Hck
[4] = tested on: oxazolone-induced skin inflammation of Balb/C mouse ears; experiment: mouse skin inflammatory model induced by oxazolone (ear thickness); format: in vivo; details: 20 ul of 0.1% compound topical on ear, 36 hours after oxazolone
Method: The compounds of the present invention were evaluated for their effective anti-inflammatory activity using a skin inflammatory animal model of 8 weeks old Balb/C mouse ears induced by oxazolone. […] After 4 days, the thickness of ear was measured using a caliper for the thickness value of ear before the induction of inflammation. […] After 36 hours, the thickness of ear was measured for the increased thickness induced by inflammation. […] The average value was obtained in each group (n=4).

c-Src tyrosine kinase = c-Src tyrosine kinase (Homo sapiens (Human), UniProt P12931); experiment: in vitro c-Src tyrosine kinase inhibition (32P-ATP, poly(D4Y)n substrate); format: biochemical; details: read-out: % inhibition against c-Src
mouse skin fibroblast = experiment: inhibition of migration of activated fibroblast (scratch wound); format: cell-based; details: read-out: Inhibition (%) of migration of activated fibroblast
Method: The straight line of regular width was made using a micro pipette tip for a scratch wound on the mono-layer culture, and then the culture was exchanged to DMEM medium and incubated with 10 ng/ml of TGF-β1 in cell culture incubator of 37° C. for 24 hours. The cultured cells were fixed using formalin and stained with crystal violet. Photo-pictures were taken at 100× magnification in five location selected randomly in the scratched wound site of each stained culture dish and then the number of the cells moved into the scratched wound area was counted and averaged.

[5] = 0.5 uM compound, 10 ng/ml TGF-β1, 48 hours, type I collagen
[6] = 10 μM compound, 100 ng/ml LPS, 6 hours
[7] = 0.5 uM compound, 10 ng/ml TGF-β1, 24 hours

Chain of DDR2 tyrosine kinase (Q16832 563-849): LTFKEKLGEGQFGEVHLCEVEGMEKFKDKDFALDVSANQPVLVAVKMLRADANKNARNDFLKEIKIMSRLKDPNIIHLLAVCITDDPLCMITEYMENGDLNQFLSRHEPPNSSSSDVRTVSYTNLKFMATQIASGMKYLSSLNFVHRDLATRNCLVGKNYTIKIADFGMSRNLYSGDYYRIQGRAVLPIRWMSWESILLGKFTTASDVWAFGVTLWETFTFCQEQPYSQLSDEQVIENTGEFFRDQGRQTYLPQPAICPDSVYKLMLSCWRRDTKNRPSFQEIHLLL
Chain of c-Src tyrosine kinase (P12931 whole entry, looked up): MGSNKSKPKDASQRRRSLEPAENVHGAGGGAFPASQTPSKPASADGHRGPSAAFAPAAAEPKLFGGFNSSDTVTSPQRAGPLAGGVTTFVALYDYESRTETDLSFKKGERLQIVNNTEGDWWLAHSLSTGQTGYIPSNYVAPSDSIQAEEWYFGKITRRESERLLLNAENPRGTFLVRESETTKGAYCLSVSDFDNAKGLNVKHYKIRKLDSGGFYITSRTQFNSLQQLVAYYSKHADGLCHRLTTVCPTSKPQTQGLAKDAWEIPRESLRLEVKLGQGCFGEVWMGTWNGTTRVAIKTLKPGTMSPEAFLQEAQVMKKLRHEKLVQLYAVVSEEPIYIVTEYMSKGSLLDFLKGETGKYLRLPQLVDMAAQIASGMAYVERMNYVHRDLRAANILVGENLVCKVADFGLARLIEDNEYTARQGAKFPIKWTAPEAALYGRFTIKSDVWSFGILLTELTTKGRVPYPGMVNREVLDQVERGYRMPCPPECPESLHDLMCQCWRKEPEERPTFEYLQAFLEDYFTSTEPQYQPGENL
Chain of Fgr tyrosine kinase (P09769 whole entry): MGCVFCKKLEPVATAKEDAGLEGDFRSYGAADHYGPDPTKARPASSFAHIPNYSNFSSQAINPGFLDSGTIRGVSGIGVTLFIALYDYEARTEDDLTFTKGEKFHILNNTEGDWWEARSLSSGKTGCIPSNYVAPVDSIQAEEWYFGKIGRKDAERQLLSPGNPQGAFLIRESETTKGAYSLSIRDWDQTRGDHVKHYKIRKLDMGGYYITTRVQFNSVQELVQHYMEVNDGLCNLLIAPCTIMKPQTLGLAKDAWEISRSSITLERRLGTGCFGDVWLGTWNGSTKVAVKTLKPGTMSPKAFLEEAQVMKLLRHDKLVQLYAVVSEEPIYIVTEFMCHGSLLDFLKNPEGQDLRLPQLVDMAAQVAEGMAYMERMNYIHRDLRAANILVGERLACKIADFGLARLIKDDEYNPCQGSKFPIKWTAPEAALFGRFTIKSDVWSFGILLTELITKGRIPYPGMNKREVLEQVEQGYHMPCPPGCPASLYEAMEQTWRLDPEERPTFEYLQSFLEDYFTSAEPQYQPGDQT
Chain of Lyn tyrosine kinase (P07948 whole entry, the tested form may be a part): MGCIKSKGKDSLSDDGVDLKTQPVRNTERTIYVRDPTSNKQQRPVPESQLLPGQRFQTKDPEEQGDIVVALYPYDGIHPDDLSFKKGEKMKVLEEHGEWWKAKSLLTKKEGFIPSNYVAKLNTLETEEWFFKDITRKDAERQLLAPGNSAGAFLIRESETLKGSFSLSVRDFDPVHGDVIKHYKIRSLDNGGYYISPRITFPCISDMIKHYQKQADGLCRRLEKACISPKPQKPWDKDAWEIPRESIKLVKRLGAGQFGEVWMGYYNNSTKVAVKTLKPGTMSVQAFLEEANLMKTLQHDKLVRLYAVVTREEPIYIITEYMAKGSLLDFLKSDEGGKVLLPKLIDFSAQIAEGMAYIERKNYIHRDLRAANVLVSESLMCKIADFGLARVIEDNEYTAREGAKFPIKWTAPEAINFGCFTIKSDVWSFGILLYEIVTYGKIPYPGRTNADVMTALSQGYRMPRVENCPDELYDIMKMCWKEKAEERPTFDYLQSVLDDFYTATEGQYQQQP
Chain of Hck tyrosine kinase (P08631 whole entry): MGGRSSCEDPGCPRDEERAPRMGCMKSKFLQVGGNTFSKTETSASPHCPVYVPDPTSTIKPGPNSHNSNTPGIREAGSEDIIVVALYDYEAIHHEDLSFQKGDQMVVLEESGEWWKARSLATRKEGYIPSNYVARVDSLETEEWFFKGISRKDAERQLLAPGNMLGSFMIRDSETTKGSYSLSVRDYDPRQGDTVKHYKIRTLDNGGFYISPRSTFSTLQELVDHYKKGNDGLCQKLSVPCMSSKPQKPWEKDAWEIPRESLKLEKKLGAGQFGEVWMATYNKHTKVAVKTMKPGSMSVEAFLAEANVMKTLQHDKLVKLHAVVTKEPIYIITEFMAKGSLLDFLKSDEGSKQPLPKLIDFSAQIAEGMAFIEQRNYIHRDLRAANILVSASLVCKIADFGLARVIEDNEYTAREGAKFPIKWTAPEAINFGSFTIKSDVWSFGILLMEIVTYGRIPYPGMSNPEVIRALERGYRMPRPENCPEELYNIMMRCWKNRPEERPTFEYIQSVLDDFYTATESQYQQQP
Chain of DDR1 tyrosine kinase (Q08345 610-905): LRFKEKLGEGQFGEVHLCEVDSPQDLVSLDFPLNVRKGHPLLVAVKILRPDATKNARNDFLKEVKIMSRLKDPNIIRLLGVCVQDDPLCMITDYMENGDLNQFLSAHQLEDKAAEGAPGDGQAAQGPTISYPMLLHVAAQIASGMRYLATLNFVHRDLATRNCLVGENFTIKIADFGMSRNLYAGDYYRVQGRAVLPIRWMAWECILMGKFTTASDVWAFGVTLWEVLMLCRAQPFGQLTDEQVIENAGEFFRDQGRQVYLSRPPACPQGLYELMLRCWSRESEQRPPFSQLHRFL

SMILES	Inhibition (%) of increase of ear thickness [4]	inhibition at 1 µM (DDR2 tyrosine kinase; 1 uM compound)	inhibition at 0.5 µM [1, 5]	inhibition at 10 µM [2, 6]	inhibition at 1 µM (Fgr tyrosine kinase; 1 uM compound)	inhibition at 10 µM ([3]; 10 μM compound, LPS, 24 hours)	inhibition at 1 µM (Lyn tyrosine kinase; 1 uM compound)	inhibition at 1 µM (DDR1 tyrosine kinase; 1 uM compound)	inhibition at 1 µM (Hck tyrosine kinase; 1 uM compound)	inhibition at 1 µM (c-Src tyrosine kinase; 1 uM compound)	inhibition at 0.5 µM (mouse skin fibroblast; [7])	further results
Cc1cc2cc(Nc3ccnc4cc(C(=O)N5CC[C@@H](O)C5)sc34)ccc2n1C(=O)NC1CC1 [Control compound 1, 5-[2-(3R-hydroxy-pyrrolidine-1-carbonyl)-thieno[3,2-b]pyridine-7-ylamino]-2-methyl-indole-1-carboxyacid cycloprophylamide, reference compound]	3%	–	–	–	–	–	–	–	–	–	–	inhibition at 1 µM (DDR2 tyrosine kinase): < 20%; inhibition at 0.5 µM ([1]; 48 h): 16%; inhibition at 10 µM ([2]; 6 h): 16%; inhibition at 1 µM (Fgr tyrosine kinase): < 20%; inhibition at 10 µM ([3]; 24 h): 32%; inhibition at 1 µM (Lyn tyrosine kinase): < 20%; inhibition at 1 µM (DDR1 tyrosine kinase): < 20%; inhibition at 1 µM (Hck tyrosine kinase): < 20%; inhibition at 1 µM (c-Src tyrosine kinase): < 20%; inhibition at 0.5 µM (mouse skin fibroblast; 24 h): 17%
COC[C@@H]1CCCN1C(=O)c1cc2nccc(Nc3ccc4c(c3)cc(C)n4C(=O)NC3CC3)c2s1 [Control compound 2, 5-(2-[(S)-2-(methoxymethyl)pyrrolidine-1-carbonyl]thieno[3,2-b]pyridine-7-ylamino)-2-methylindole-1-carboxyacid cycloprophylamide, reference compound]	–	< 20%	22%	39%	< 20%	45%	< 20%	< 20%	< 20%	< 20%	14%	–
CO[C@@H]1C[C@@H](CO)N(C(=O)c2cc3nccc(Nc4ccc5c(c4)cc(C)n5C(=O)NC4CC4)c3s2)C1 [Control compound 3, reference compound]	22%	< 20%	8%	19%	< 20%	21%	< 20%	< 20%	< 20%	< 20%	11%	–
Oc1cccc(Nc2ncnc3cc(-c4ccc(CN5CCOCC5)cc4)sc23)c1 [LCB 03-0032, 3-(6-(4-(morpholinomethyl)phenyl)thieno[3,2-d]pyrimidin-4-ylamino)phenol]	27%	> 80%	56%	77%	> 80%	92%	> 80%	> 80%	> 80%	> 80%	35%	–
Oc1cccc(Nc2ncnc3cc(-c4ccc(CN5CCNCC5)cc4)sc23)c1 [LCB 03-0033, 3-(6-(4-(piperazine-1-ylmethyl)phenyl)thieno[3,2-d]pyrimidin-4-ylamino)phenol]	22%	> 80%	60%	59%	> 60%	77%	> 60%	> 80%	> 60%	> 60%	30%	–
Cl.Oc1cccc(Nc2ncnc3cc(-c4ccc(CN5CCCC5)cc4)sc23)c1 [LCB 03-0034, 3-(6-(4-(pyrrolidin-1-ylmethyl)phenyl)thieno[3,2-d]pyrimidin-4-ylamino)phenol]	29%	> 80%	67%	75%	> 80%	90%	> 80%	> 80%	> 70%	> 80%	32%	–
OCC1CCCN1Cc1ccc(-c2cc3ncnc(Nc4cccc(O)c4)c3s2)cc1 (stereo not shown) [LCB 03-0057, 3-(6-(4-((2-(hydroxymethyl)pyrrolidin-1-yl)methyl)phenyl)thieno[3,2-d]pyrimidin-4-ylamino)phenol]	–	> 80%	–	64%	> 50%	87%	> 50%	> 80%	> 50%	> 50%	–	–
CC1CCN(Cc2ccc(-c3cc4ncnc(Nc5cccc(O)c5)c4s3)cc2)CC1 [LCB 03-0058, 3-(6-(4-((4-methylpiperidin-1-yl)methyl)phenyl)thieno[3,2-d]pyrimidin-4-ylamino)phenol]	–	> 80%	–	58%	> 40%	80%	> 40%	> 80%	> 40%	> 40%	–	–
Cl.Oc1cccc(Nc2ncnc3cc(-c4ccc(CN5CCC(O)C5)cc4)sc23)c1 (stereo not shown) [LCB 03-0072, 1-(4-(4-(3-hydroxyphenylamino)thieno[3,2-d]pyrimidin-6-yl)benzyl)pyrrolidin-3-ol]	48%	> 80%	39%	59%	–	76%	–	> 80%	–	–	27%	–
CCNCc1ccc(-c2cc3ncnc(Nc4cccc(O)c4)c3s2)s1 [LCB 03-0095, 3-(6-(5-((ethylamino)methyl)thiophene-2-yl)thieno[3,2-d]pyrimidin-4-ylamino)phenol]	43%	> 80%	37%	–	> 60%	–	> 60%	> 80%	> 50%	> 60%	23%	inhibition at 10 µM ([3]; 24 h): 59%
Oc1cccc(Nc2ccnc3cc(-c4ccc(CN5CCCCC5)cc4)sc23)c1 [LCB 03-0097, 3-(2-(4-(piperidin-1-ylmethyl)phenyl)thieno[3,2-b]pyridin-7-ylamino)phenol]	–	> 80%	45%	–	> 30%	–	> 30%	> 80%	> 30%	> 30%	34%	–
Oc1cccc(Nc2ccnc3cc(-c4ccc(CN5CCNCC5)cc4)sc23)c1 [LCB 03-0098, 3-(2-(4-(piperazin-1-ylmethyl)phenyl)thieno[3,2-b]pyridin-7-ylamino)phenol]	–	> 80%	51%	–	> 30%	–	> 30%	> 80%	> 30%	> 30%	34%	–
CCNCc1ccc(-c2cc3nccc(Nc4cccc(O)c4)c3s2)cc1 [LCB 03-0099, 3-(2-(4-((ethylamino)methyl)phenyl)thieno[3,2-b]pyridin-7-ylamino)phenol]	–	> 80%	39%	–	> 30%	–	> 30%	> 80%	> 30%	> 30%	29%	–
Oc1cccc(Nc2ncnc3cc(-c4cc(CN5CCCC5)cs4)sc23)c1 [LCB 03-0101, 3-(6-(4-(pyrrolidin-1-ylmethyl)thiophene-2-yl)thieno[3,2-d]pyrimidin-4-ylamino)phenol]	–	–	–	–	–	–	–	–	–	–	–	inhibition at 1 µM (DDR2 tyrosine kinase): > 70%; inhibition at 10 µM ([2]; 6 h): 71%; inhibition at 1 µM (Fgr tyrosine kinase): > 70%; inhibition at 10 µM ([3]; 24 h): 76%; inhibition at 1 µM (Lyn tyrosine kinase): > 70%; inhibition at 1 µM (DDR1 tyrosine kinase): > 70%; inhibition at 1 µM (Hck tyrosine kinase): > 70%; inhibition at 1 µM (c-Src tyrosine kinase): > 70%
